Assays:
[1] = Caco-2 monolayer permeability; conditions: human
[2] = tested on: ALS; conditions: ALS patients, on average; ref [1]; cited from earlier work
[3] = Plasma concentration and blood brain barrier penetration; conditions: G93A SOD1 transgenic mice, single ip 50 mg/kg
[4] = tested on: panel of 68 radioligand receptor assays; test: LeadProfilingScreen radioligand binding panel; conditions: 10 uM; none positive, mostly <10%

`CC(Oc1cc(C(F)(F)F)cc(C(F)(F)F)c1)C1CC(=O)CC(=O)C1` (stereo not shown) [Compound 73] showed a Papp A→B at 2 h, 50 μM [1] of 24.8 ×10⁻⁶ cm/s.

In the case of `Nc1nc2ccc(OC(F)(F)F)cc2s1` [riluzole], the extension of life [2] is given as 2–3 months.

With `O=C1CC(=O)CC(c2cc(C(F)(F)F)cc(C(F)(F)F)c2)C1` [Compound 26] the “period of stable plasma concentrations” value [3] was 3 to 12 h and the “inhibition in all 68 radioligand receptor assays” value [4] was under 20%.
